Data as given in US11426473B2, “Nitrogen-containing compound or salt thereof, or metal complex thereof” (FUJIFILM Corporation, priority 2013, dated 2022).

Legend:
[1] = system: U87MG cells subcutaneous tumor; assay: Treatment experiment of subcutaneously U87MG-transplanted model using [90Y]-(P2); type: in vivo, mouse; details: 1 dose; for Rate of inhibition: 16 days after administration, above 100% indicated as 100%; for Tumor volume 16 days after administration / Tumor volume At start of administration: n 8, Mean ± SD; for Tumor volume At start of administration: baseline; for The number of individuals having tumor regression: of n 8
Method: (§1) U87MG cells were subcutaneously transplanted at 1×10^7 cells/mouse to the right flank of Balb/c Slc-nu/nu (SLC Japan, Inc., male, 6 weeks old). After 2 weeks, mice whose tumors became 100 to 500 mm^3 were grouped. Phosphate-buffered saline (PBS) or the radiolabeled compound [90Y]-(P2) was administered to the tail veins of the mice, and their tumor volumes were measured. When the tumor volumes of the mice in the PBS group exceeded 2,000 mm^3, which is a humanistic endpoint, the antitumor effect was evaluated. The evaluation values were the rate of inhibition of tumor growth ((1−(Average tumor volume of the compound administration group−Average tumor volume of the compound administration group before administration)/(Average tumor volume of the PBS group−Average tumor volume of the PBS group before administration))×100 (provided that the rate of inhibition exceeding 100% was indicated as 100%)) and the number of individuals having a tumor volume equal to or smaller than that at the start of the experiment (the number of individuals having tumor regression).

[2] = Radiochemical purity after standing at room temperature; type: physicochemical; details: immediately after preparation and after standing at room temperature for 24 hours
Method: To a mixed solution of compound (P2) (8.5 μg) and a 0.2 mol/L sodium acetate buffer solution (pH 4.0) (1.5 mL), a [^111In] indium chloride solution (80 MBq, 100 μL) was added. The mixture was heated at 100° C. for 15 minutes and then left at room temperature for 5 minutes to obtain radiolabeled compound [^111In]-(P2). […] Its radiochemical purity was 95% or more both immediately after preparation and after standing at room temperature for 24 hours.
To a mixed solution of compound (P2) (79 μg), gentisic acid (1.8 mg), a 0.6 mol/L sodium acetate buffer solution (pH 4.0, 120 μL), and a 0.4 mol/L aqueous sodium hydroxide solution (24 μL), a [^90Y] yttrium chloride solution (700 MBq, 240 μL) was added. The mixture was heated at 100° C. for 20 minutes and then left at room temperature for 5 minutes to obtain radiolabeled compound [^90Y]-(P2). […] Its radiochemical purity was 95% or more both immediately after preparation and after standing at room temperature for 24 hours.
To a mixed solution of compound (P2) ([…]) and a 0.2 mol/L sodium acetate buffer solution (pH 4.0, 219 μL), a [^64Cu] copper chloride solution (pH 5, 35 MBq, 55 μL) was added. The mixture was heated at 100° C. for 15 minutes and then left at room temperature for 5 minutes to obtain radiolabeled compound [^64Cu]-(P2). […] Its radiochemical purity was 90% or more both immediately after preparation and after standing at room temperature for 22 hours.
To a mixed solution of compound (Aa7) (4.2 μg), gentisic acid (1 mg), and a 0.2 mol/L sodium acetate buffer solution (pH 4.0) (5.0 μL), [^64Cu] copper chloride in a 0.2 mol/L sodium acetate buffer solution (pH 4.0) (40 MBq, 155 μL) was added. The mixture was heated at 100° C. for 15 minutes and then left at room temperature for 5 minutes to obtain radiolabeled compound [^64Cu]-(Aa7). […] Its radiochemical purity was 90% or more both immediately after preparation and after standing at room temperature for 24 hours.

[3] = system: T98G cell (human glioblastoma) subcutaneous tumor; assay: Treatment experiment of subcutaneously T98G-transplanted model using [90Y]-(P2); type: in vivo, mouse; details: 1 dose; for Rate of inhibition: 13 days after administration, above 100% indicated as 100%; for Tumor volume 13 days after administration / Tumor volume At start of administration: n 6, Mean ± SD; for Tumor volume At start of administration: baseline; for The number of individuals having tumor regression: of n 6
Method: as §1
A mixture of a T98G cell suspension (human glioblastoma, 1×10^7 cells) and Matrigel (Becton, Dickinson and Company) in equal amounts was subcutaneously transplanted to the right flank of Balb/c Slc-nu/nu (SLC Japan, Inc., male, 6 weeks old). After 77 days, the mice were grouped when their tumors became 300 to 1,200 mm^3. Phosphate-buffered saline (PBS) or the radiolabeled compound [^90Y]-(P2) was administered to the tail veins of the mice, and their tumor volumes were measured. The evaluation values were calculated in the same way as in Test Example 8 to evaluate the antitumor effect.

[4] = Absorbed doses in each organ in humans calculated with OLINDA/EXM 1.0 from monkey organ distribution; type: in vivo; details: calculated with OLINDA/EXM 1.0 from monkey imaging with [111In]-(P2)
Method: Blood kinetic parameters were calculated with OLINDA/EXM 1.0 from the blood concentration of radioactivity by blood collection over time from a cynomolgus monkey using [^111In]-(P2). Also, absorbed doses in each organ in the case of administration to humans were calculated with OLINDA/EXM 1.0 from organ distribution by imaging using [^111In]-(P2). The radiolabeled compound [^111In]-(P2) (98 MBq/[…]) was administered to a cynomolgus monkey (Hamri Co., Ltd., male, 3 years old, 3.4 kg) under anesthesia. After the administration, blood collection and imaging with a gamma camera were performed over time. The blood collection was carried out 10 minutes, 30 minutes, 60 minutes, 2 hours, 4 hours, 5 hours, 6 hours, 24 hours, 48 hours, 72 hours, and 144 hours after administration. The imaging was carried out 1, 2, 4, 6, 24, 48, 72, and 144 hours after administration with a gamma camera (Symbia, Siemens AG) to take planar images. The anesthesia was carried out using 20 mg/kg ketamine before administration of [^111In]-(P2) and maintained by inhalation anesthesia (2 to 3% isoflurane, 5 to 8 L/min) until the completion of the imaging at 6 hours after administration. At or after 24 hours after administration, blood collection and imaging were performed by the introduction of 20 mg/kg ketamine and 2 mg/kg xylazine. […] The blood kinetic parameters are shown below.

[5] = system: U87MG cells subcutaneous tumor; assay: Concentration of radioactivity in tumor of labeled compounds (Test Example 4); type: in vivo, mouse; details: tail vein, 111In 740 kBq, 64Cu and 90Y 500 kBq
Method: U87MG cells were subcutaneously transplanted at 1×10^7 cells/mouse to the right flank of Balb/cAJcl-nu/nu (CLEA Japan, Inc. or Japan SLC, Inc., 6 to 9 weeks old). After 2 to 3 weeks, the mice were divided into groups each involving 3 individuals per point in time when their tumors became 200 to 500 mm^3. The ^111In-labeled compound (740 kBq) was administered to the tail veins of the mice.
After a given time, the animals were sacrificed to extract their tumors. The weights of the tumors were measured, and the radioactivity was measured using a gamma counter to calculate the concentration of radioactivity in the tumors (% ID/g). In the same way as above, the concentration of radioactivity in the tumors (% ID/g) was calculated for the ^64Cu-labeled compound (500 kBq) and the ^90Y-labeled compound (500 kBq).

[6] = system: SK-MEL-28 (human melanoma) subcutaneous tumor; assay: Tumor accumulation of [111In]-(A8), tissue extraction and radioactivity measurement, SK-MEL-28; type: in vivo, mouse; details: 740 kBq tail vein
Method: (§2) SK-MEL-28 (human melanoma), A375 (human melanoma), A498 (human renal cell cancer), Caki-2 (human renal cell cancer), HCT116, U87MG, and T98G cells were studied as follows: the cells of each line were cultured and subcutaneously transplanted at 1×10^7 cells/mouse to the right flank of Balb/cAJcl-nu/nu (CLEA Japan, Inc., male, 6 to 8 weeks old). The mice were raised until their tumor volumes reached 85 to 1,075 mm^3. Then, the mice were allocated at the time of anatomy to groups each involving 3 individuals so as to prevent the tumor volumes from disproportioning among the groups. Then, the radiolabeled compound [^111In]-(A8) (740 kBq) was administered to the tail veins of the mice. The animals were sacrificed at the time of anatomy to extract their tumors. The weights of the tumors were measured, and then, the radioactivity was measured using a gamma counter to calculate the concentration of radioactivity in the tumors (% ID/g: % injected dose/g).

[7] = system: A375 (human melanoma) subcutaneous tumor; assay: Tumor accumulation of [111In]-(A8), tissue extraction and radioactivity measurement, A375; type: in vivo, mouse; details: 740 kBq tail vein
Method: as §2

[8] = system: T98G (human glioblastoma) subcutaneous tumor; assay: Tumor accumulation of [111In]-(A8), tissue extraction and radioactivity measurement, T98G; type: in vivo, mouse; details: 740 kBq tail vein
Method: as §2

[9] = system: U87MG (human glioblastoma) subcutaneous tumor; assay: Tumor accumulation of [111In]-(A8), tissue extraction and radioactivity measurement, U87MG; type: in vivo, mouse; details: 740 kBq tail vein
Method: as §2

[10] = system: HCT116 (human colorectal cancer) subcutaneous tumor; assay: Tumor accumulation of [111In]-(A8), tissue extraction and radioactivity measurement, HCT116; type: in vivo, mouse; details: 740 kBq tail vein
Method: as §2

[11] = system: A498 (human renal cell cancer) subcutaneous tumor; assay: Tumor accumulation of [111In]-(A8), tissue extraction and radioactivity measurement, A498; type: in vivo, mouse; details: 740 kBq tail vein
Method: as §2

[12] = system: Caki-2 (human renal cell cancer) subcutaneous tumor; assay: Tumor accumulation of [111In]-(A8), tissue extraction and radioactivity measurement, Caki-2; type: in vivo, mouse; details: 740 kBq tail vein
Method: as §2

## Cc1cc(OCCCC(=O)NCCNC(=O)[C@H](CS(=O)(=O)O)NC(=O)CN2CCN(CC(=O)[O-])CCN(CC(=O)[O-])CCN(CC(=O)[O-])CC2)cc(C)c1S(=O)(=O)N[C@@H](CNC(=O)CCCCc1ccc2c(n1)NCCC2)C(=O)O.[90Y+3] [[^90Y]-(P2)]
[1]; Dose 14.8 MBa
  Rate of inhibition: 95%
  Tumor volume 16 days after administration: 429 ± 188 mm^3
  Tumor volume At start of administration: 351 ± 72 mm^3
  The number of individuals having tumor regression: 2
[1]; Dose 22.2 MBa
  Rate of inhibition: 97%
  Tumor volume 16 days after administration: 386 ± 142 mm^3
  Tumor volume At start of administration: 343 ± 88 mm^3
  The number of individuals having tumor regression: 2
[2]
  radiochemical purity after standing: ≥ 95%
[3]; Dose 22.2 MBa
  Rate of inhibition: 82%
  Tumor volume 13 days after administration: 882 ± 399 mm^3
  Tumor volume At start of administration: 755 ± 293 mm^3
  The number of individuals having tumor regression: 1
[3]; Dose 29.6 MBa
  Rate of inhibition: 97%
  Tumor volume 13 days after administration: 755 ± 313 mm^3
  Tumor volume At start of administration: 736 ± 264 mm^3
  The number of individuals having tumor regression: 3
[4]
  Absorbed dose, Brain: 1.96 mGy/MBq
  Absorbed dose, Kidney: 14.70 mGy/MBq
  Absorbed dose, Liver: 1.12 mGy/MBq
  Absorbed dose, Lung: 1.35 mGy/MBq
  Absorbed dose, Red bone marrow: 0.06 mGy/MBq
  Absorbed dose, Small intestine: 0.87 mGy/MBq
  Absorbed dose, Whole body: 0.27 mGy/MBq
[5]; 4 hours later
  Concentration of radioactivity in tumor: 12.52 % ID/g
[5]; 24 hours later
  Concentration of radioactivity in tumor: 15.29 % ID/g

## Cc1cc(OCCCC(=O)NCCNC(=O)C(CS(=O)(=O)O)NC(=O)C(CS(=O)(=O)O)NC(=O)CN2CCN(CC(=O)[O-])CCN(CC(=O)[O-])CCN(CC(=O)[O-])CC2)cc(C)c1S(=O)(=O)NC(CNC(=O)c1ccc(CCc2ccc3c(n2)NCCC3)cc1)C(=O)O.[111In+3] (stereo not drawn) [[^111In]-(A8)]
[6]; sk-mel-28, 4 hours later
  Concentration of radioactivity in tumor: 2.9 % ID/g
[6]; sk-mel-28, 24 hours later
  Concentration of radioactivity in tumor: 4.9 % ID/g
[7]; A375, 4 hours later
  Concentration of radioactivity in tumor: 3.7 % ID/g
[7]; A375, 24 hours later
  Concentration of radioactivity in tumor: 3.8 % ID/g
[8]; 4 hours later
  Concentration of radioactivity in tumor: 6.5 % ID/g
[8]; 24 hours later
  Concentration of radioactivity in tumor: 6.7 % ID/g
[9]; 4 hours later
  Concentration of radioactivity in tumor: 12.0 % ID/g
[9]; 24 hours later
  Concentration of radioactivity in tumor: 9.3 % ID/g
[10]; HCT116, 4 hours later
  Concentration of radioactivity in tumor: 3.1 % ID/g
[10]; HCT116, 24 hours later
  Concentration of radioactivity in tumor: 2.9 % ID/g
[11]; A498, 4 hours later
  Concentration of radioactivity in tumor: 13.1 % ID/g
[11]; A498, 24 hours later
  Concentration of radioactivity in tumor: 7.9 % ID/g
[5]; 4 hours later
  Concentration of radioactivity in tumor: 9.48 % ID/g
[5]; 24 hours later
  Concentration of radioactivity in tumor: 12.90 % ID/g
[12]; caki-2, 4 hours later
  Concentration of radioactivity in tumor: 6.4 % ID/g
[12]; caki-2, 24 hours later
  Concentration of radioactivity in tumor: 8.5 % ID/g
